Laboratory results from publication PMC5982655, “Interaction of the New Monofunctional Anticancer Agent Phenanthriplatin With Transporters for Organic Cations” (Frontiers in Chemistry, 2018).

System: UW228 cells
Assay: MTT cell viability, UW228 medulloblastoma cells
Assay type: cell-based
Method: A modified 3-(4,5-dimethylthiazol-2-yl)-2,5-diphenyltetrazolium bromide (MTT) assay (Mosmann, [1983]) was used to test the chemosensitivity of cells to phenanthriplatin and, in some experiments, to cisplatin by determining the glycolysis rate via the reduction of the yellow tetrazolium salt MTT to a purple formazan dye, as previously described (Wehe et al., [2014]). Briefly, after growing for 24 h in the incubator, cells expressing or not hOCT2, hMATE1, hMATE2 or Ctr1 were treated for 10 min with platinum derivatives. Control cells were incubated with drug-free complete cell culture medium. Afterwards, the medium was carefully removed and replaced by 200 μL of fresh complete cell culture medium. After incubation for another 24 h, 10 μL of MTT solution containing 5 mg/mL of the dye were added to each well, and the cells were again incubated for 3 h. The medium was then removed and 100 μL of lysis buffer containing 10% (w/v) sodium dodecyl sulfate and 40% (v/v) dimethylformamide was added to each well. The plates were shaken for 10 min to destroy the cell structure and dissolve the blue formazan dye (Furchert et al., [2007]; Wehe et al., [2014]). Finally, the absorbance was measured at 590 nm using an automated microtiter plate reader (Infinite M200; Tecan, Männedorf, Switzerland). The percentage of viable cells in the untreated controls was compared to that for the various treatments. Experiments carried out with DAOY and UW228 cells followed a similar protocol except that these cells were incubated for 24 h with phenanthriplatin.
Data are presented as mean values ± SEM, with (n) referring to the number of wells. IC50 values defined as the concentration of platinum agent required to inhibit uptake of ASP^+ by 50% and EC50 values used to assess cell viability were obtained by sigmoidal concentration-response curve fitting using GraphPad Prism, Version 5.3 (GraphPad Software, San Diego, USA). […] For multiple comparisons, ANOVA with Bonferroni post-test was used. A P-value < 0.05 was considered statistically significant.

N.N.[Cl][Pt+].c1ccc2c(c1)cnc1ccccc12 [phenanthriplatin, cis-[Pt(NH3)2Cl(phenanthridine)]^+]
Protection from phenanthriplatin toxicity by cimetidine (cell viability, MTT) (UW228, 24 h, 3 μM phenanthriplatin + 10-fold higher cimetidine): not in UW228 cells | EC50 (UW228, 24 h incubation, MTT): 2.8 µM | logEC50 ± SEM for viability (UW228, 24 h incubation, MTT): −5.55 ± 0.03
